Results from patent US12209096B2, “Compounds and compositions for inducing chondrogenesis” (NOVARTIS AG, priority 2017, dated 2025).

System: NHACs
Assay: calcium flux assay
Assay type: cell-based, human
Conditions: Homo sapiens; for Emax: read-out: (A) % Efficacy
Outline: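 FLIPR fluorescence (ex 470–495 nm, em 515–575 nm) was read before and after compound dispense at the indicated dose. Chondrocytes (NHACs), 2000 cells/well, had been dye-loaded 24 h after plating with Calcium 5 in HBSS/HEPES plus 5 mM probenecid, 1 h, room temperature.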

## Cc1ccc([C@H]2[C@H]3O[C@H](C[C@@H]3O)[C@H]2C(=O)Nc2ccc(Cl)c(Cl)c2)cn1 [Example 48, (1R,2S,3S,4R,5S)—N-(3,4-dichlorophenyl)-5-hydroxy-3-(6-methylpyridin-3-yl)-7-oxabicyclo[2.2.1]heptane-2-carboxamide]
  EC50: 22 µM
  Emax: 80%

## COc1cc([C@H]2[C@H]3O[C@H](C[C@@H]3O)[C@H]2C(=O)Nc2ccc(Cl)c(Cl)c2)ccn1 (single isomer, unassigned) [Example 49a]
  EC50: 0.84 µM
  Emax: 53%

## COc1cc([C@H]2[C@H]3O[C@H](C[C@@H]3O)[C@@H]2C(=O)Nc2ccc(Cl)c(Cl)c2)ccn1 (racemic) [Example 139, rac-(1R,2R,3S,4R,5S)—N-(3,4-dichlorophenyl)-5-hydroxy-3-(2-methoxypyridin-4-yl)-7-oxabicyclo[2.2.1]heptane-2-carboxamide]
  EC50: 21 µM
  Emax: 223%

## COc1cc([C@H]2[C@H]3O[C@H]([C@@H]4C[C@@H]43)[C@H]2C(=O)Nc2ccc(Cl)c(Cl)c2)ccn1 [Example 24, (1S,2S,4R,5R,6S,7S)-N-(3,4-dichlorophenyl)-7-(2-methoxypyridin-4-yl)-8-oxatricyclo[3.2.1.0^2,4]octane-6-carboxamide]
  EC50: 11 µM
  Emax: 71%

## COc1cc([C@H]2[C@H]3O[C@H](C[C@@H]3O)[C@H]2C(=O)Nc2ccc(Cl)c(Cl)c2)ccn1 (racemic) [Example 49, rac-(1R,2S,3S,4R,5S)—N-(3,4-dichlorophenyl)-5-hydroxy-3-(2-methoxypyridin-4-yl)-7-oxabicyclo[2.2.1]heptane-2-carboxamide]
  EC50: 11 µM
  Emax: 77%

## Cc1cc([C@H]2[C@H]3O[C@H]([C@H](O)[C@@H]3O)[C@@H]2C(=O)Nc2cccc(C(F)(F)F)c2)ccn1 [Example 158, (1S,2R,3S,4R,5S,6R)-5,6-dihydroxy-3-(2-methylpyridin-4-yl)-N-(3-(trifluoromethyl)phenyl)-7-oxabicyclo[2.2.1]heptane-2-carboxamide]
  EC50: > 50 µM
  Emax: 31%

## Cc1cc([C@H]2[C@H]3O[C@H](C[C@H]3N[C@H]3C[C@H](O)C3)[C@@H]2C(=O)Nc2ccc(Cl)c(Cl)c2)ccn1 [Example 170, (1R,2R,3S,4R,5R)—N-(3,4-dichlorophenyl)-5-(((1r,3R)-3-hydroxycyclobutyl)amino)-3-(2-methylpyridin-4-yl)-7-oxabicyclo[2.2.1]heptane-2-carboxamide]
  EC50: > 50 µM
  Emax: 37%

## O=C(Nc1ccc(Cl)c(Cl)c1)[C@H]1[C@@H](c2cncnc2)[C@H]2O[C@@H]1C[C@@H]2O [Example 51, (1R,2S,3S,4R,5S)—N-(3,4-dichlorophenyl)-5-hydroxy-3-(pyrimidin-5-yl)-7-oxabicyclo[2.2.1]heptane-2-carboxamide]
  EC50: > 50 µM
  Emax: 0%

## O=C(Nc1cccc(C(F)(F)F)c1)[C@H]1[C@@H]2O[C@@H](C[C@H]2O)[C@@H]1c1ccncc1 [Example 89, (1S,2R,3S,4S,6R)-6-hydroxy-3-(pyridin-4-yl)-N-(3-(trifluoromethyl)phenyl)-7-oxabicyclo[2.2.1]heptane-2-carboxamide]
  EC50: > 50 µM
  Emax: 0%

## Cc1cc([C@H]2[C@H]3O[C@H](C[C@H]3F)[C@@H]2C(=O)Nc2ncc(C)s2)ccn1 [Example 102, (1R,2R,3S,4R,5R)-5-fluoro-3-(2-methylpyridin-4-yl)-N-(5-methylthiazol-2-yl)-7-oxabicyclo[2.2.1]heptane-2-carboxamide]
  EC50: 2.1 µM
  Emax: 84%

## Nc1ncc([C@H]2[C@H]3O[C@H](C[C@@H]3O)[C@@H]2C(=O)Nc2ccc(Cl)c(Cl)c2)cn1 [Example 143, (1R,2R,3S,4R,5S)-3-(2-aminopyrimidin-5-yl)-N-(3,4-dichlorophenyl)-5-hydroxy-7-oxabicyclo[2.2.1]heptane-2-carboxamide]
  EC50: > 50 µM
  Emax: 0%

## CN(C)c1ncc([C@H]2[C@H]3O[C@H](C[C@@H]3O)[C@H]2C(=O)Nc2ccc(Cl)c(Cl)c2)cn1 [Example 55, (1R,2S,3S,4R,5S)—N-(3,4-dichlorophenyl)-3-(2-(dimethylamino)pyrimidin-5-yl)-5-hydroxy-7-oxabicyclo[2.2.1]heptane-2-carboxamide]
  EC50: > 50 µM
  Emax: 0%

## Cc1cc([C@H]2[C@H]3O[C@H](C[C@H]3F)[C@H]2C(=O)Nc2cccc(C(F)(F)F)c2)ccn1 [Example 15, (1R,2S,3S,4R,5R)-5-fluoro-3-(2-methylpyridin-4-yl)-N-[3-(trifluoromethyl)phenyl]-7-oxabicyclo[2.2.1]heptane-2-carboxamide]
  EC50: > 50 µM
  Emax: 0%

## O=C(Nc1ccc(Cl)c(Cl)c1)[C@H]1[C@@H]2O[C@@H]([C@H]3C[C@H]32)[C@@H]1c1cncnc1 (racemic) [Example 126, rac-(1S,2S,4R,5R,6R,7S)—N-(3,4-dichlorophenyl)-7-(pyrimidin-5-yl)-8-oxatricyclo[3.2.1.0^2,4]octane-6-carboxamide]
  EC50: 10 µM
  Emax: 212%

## O=C(Nc1cccc(C(F)(F)F)c1)[C@@H]1[C@@H]2O[C@@H]([C@H]3C[C@H]32)[C@@H]1c1cncnc1 [Example 37, (1S,2S,4R,5R,6S,7S)-7-(pyrimidin-5-yl)-N-(3-(trifluoromethyl)phenyl)-8-oxatricyclo[3.2.1.0^2,4]octane-6-carboxamide]
  EC50: > 50 µM
  Emax: 26%

## Cc1cc([C@H]2[C@H]3O[C@H]([C@@H]4C[C@@H]43)[C@@H]2C(=O)Nc2ccc(OC(F)(F)F)c(F)c2)ccn1 [Example 71, (1S,2S,4R,5R,6R,7S)—N-(3-fluoro-4-(trifluoromethoxy)phenyl)-7-(2-methylpyridin-4-yl)-8-oxatricyclo[3.2.1.0^2,4]octane-6-carboxamide]
  EC50: 6.2 µM
  Emax: 250%

## O=C(Nc1ccc(Cl)c(Cl)c1)[C@H]1[C@H]2O[C@H]([C@@H]3C[C@@H]32)[C@H]1c1ccnc(F)c1F (single isomer, unassigned) [Example 30]
  EC50: 10 µM
  Emax: 133%

## O=C(Nc1ccc(Cl)c(Cl)c1)[C@H]1[C@@H]2O[C@@H]([C@H]3C[C@H]32)[C@@H]1c1cnc(F)nc1 [Example 129, (1S,2S,4R,5R,6R,7S)—N-(3,4-dichlorophenyl)-7-(2-fluoropyrimidin-5-yl)-8-oxatricyclo[3.2.1.0^2,4]octane-6-carboxamide]
  EC50: 10 µM
  Emax: 146%

## O=C(Nc1ccc(Cl)c(Cl)c1)[C@@H]1[C@@H](c2cccc(C(F)(F)F)n2)[C@H]2O[C@@H]1C[C@@H]2O [Example 140, (1R,2R,3S,4R,5S)—N-(3,4-dichlorophenyl)-5-hydroxy-3-(6-(trifluoromethyl)pyridin-2-yl)-7-oxabicyclo[2.2.1]heptane-2-carboxamide]
  EC50: 15 µM
  Emax: 292%

## Cc1cc([C@H]2[C@H]3O[C@H](C[C@@H]3O)[C@H]2C(=O)Nc2cc(Cl)c(Cl)cn2)ccn1 [Example 4, (1R,2S,3S,4R,5S)-N-(4,5-dichloropyridin-2-yl)-5-hydroxy-3-(2-methylpyridin-4-yl)-7-oxabicyclo[2.2.1]heptane-2-carboxamide]
  EC50: > 50 µM
  Emax: 28%

## Cc1ncc([C@H]2[C@H]3O[C@H](C[C@@H]3O)[C@H]2C(=O)Nc2ccc(Cl)c(Cl)c2)cn1 [Example 56, (1R,2S,3S,4R,5S)—N-(3,4-dichlorophenyl)-5-hydroxy-3-(2-methylpyrimidin-5-yl)-7-oxabicyclo[2.2.1]heptane-2-carboxamide]
  EC50: > 50 µM
  Emax: 0%

## O=C(Nc1ccc(Cl)c(Cl)c1)[C@@H]1[C@@H]2O[C@@H]([C@H]3C[C@H]32)[C@@H]1c1ccnc(F)c1 [Example 25, (1S,2S,4R,5R,6S,7S)-N-(3,4-dichlorophenyl)-7-(2-fluoropyridin-4-yl)-8-oxatricyclo[3.2.1.0^2,4]octane-6-carboxamide]
  EC50: 17 µM
  Emax: 52%

## Cc1cc([C@H]2[C@H]3O[C@H](C[C@@H]3F)[C@H]2C(=O)Nc2cnc(Cl)c(Cl)c2)ccn1 [Example 18, (1R,2S,3S,4R,5S)-N-(5,6-dichloropyridin-3-yl)-5-fluoro-3-(2-methylpyridin-4-yl)-7-oxabicyclo[2.2.1]heptane-2-carboxamide]
  EC50: > 50 µM
  Emax: 0%

## COc1ccc(NC(=O)[C@H]2[C@@H]3O[C@@H]([C@H]4C[C@H]43)[C@@H]2c2ccnc(F)c2F)cn1 [Example 127, (1S,2S,4R,5R,6R,7S)-7-(2,3-difluoropyridin-4-yl)-N-(6-methoxypyridin-3-yl)-8-oxatricyclo[3.2.1.0^2,4]octane-6-carboxamide]
  EC50: > 50 µM
  Emax: 62%

## O=C(Nc1ccc(Cl)c(Cl)c1)[C@H]1[C@@H]2O[C@@H]([C@H]3C[C@H]32)[C@@H]1c1cnc(N2CCOCC2)nc1 [Example 133, (1S,2S,4R,5R,6R,7S)—N-(3,4-dichlorophenyl)-7-(2-morpholinopyrimidin-5-yl)-8-oxatricyclo[3.2.1.0^2,4]octane-6-carboxamide]
  EC50: 25 µM
  Emax: 158%

## O=C(Nc1cccc(C(F)(F)F)c1)[C@H]1[C@@H]2O[C@@H]([C@H]3C[C@H]32)[C@@H]1c1cncnc1 [Example 130, (1S,2S,4R,5R,6R,7S)-7-(pyrimidin-5-yl)-N-(3-(trifluoromethyl)phenyl)-8-oxatricyclo[3.2.1.0^2,4]octane-6-carboxamide]
  EC50: 10 µM
  Emax: 237%

## O=C(Nc1cccc(C(F)(F)F)c1)[C@@H]1[C@@H]2O[C@@H](C[C@H]2O)[C@@H]1c1ccncc1 [Example 12, (1S,2S,3S,4S,6R)-6-hydroxy-3-(pyridin-4-yl)-N-[3-(trifluoromethyl)phenyl]-7-oxabicyclo[2.2.1]heptane-2-carboxamide]
  EC50: > 50 µM
  Emax: 22%

## O=C(Nc1ccc(Cl)c(Cl)c1)[C@H]1[C@@H]2O[C@@H]([C@H]3C[C@H]32)[C@@H]1c1ccnc(F)c1 [Example 119, (1S,2S,4R,5R,6R,7S)—N-(3,4-dichlorophenyl)-7-(2-fluoropyridin-4-yl)-8-oxatricyclo[3.2.1.0^2,4]octane-6-carboxamide]
  EC50: 25 µM
  Emax: 149%
